Measured values from US20130317096A1, “SYNERGISTIC INTERACTION OF AT LEAST ONE VITAMIN E COMPONENT AND TYROSINASE INHIBITORS FOR DERMATOLOGICAL APPLICATIONS” (Davos Life Science Pte Ltd, priority 2010, published 2013).

Legend:
tyrosinase [1] = target: T1, tyrosinase (Mus musculus, UniProt P11344); experiment: Tyrosinase activity of treated B16 melanoma cells (L-DOPA, dopachrome formation); assay type: cell-based; conditions: 20 μM; for tyrosinase activity: day 9
T1 construct: suppression of tyrosinase protein expression in B16 melanoma cells; endogenous in cells; host or cells: B16 melanoma cells
T1 sequence (P11344 19-533): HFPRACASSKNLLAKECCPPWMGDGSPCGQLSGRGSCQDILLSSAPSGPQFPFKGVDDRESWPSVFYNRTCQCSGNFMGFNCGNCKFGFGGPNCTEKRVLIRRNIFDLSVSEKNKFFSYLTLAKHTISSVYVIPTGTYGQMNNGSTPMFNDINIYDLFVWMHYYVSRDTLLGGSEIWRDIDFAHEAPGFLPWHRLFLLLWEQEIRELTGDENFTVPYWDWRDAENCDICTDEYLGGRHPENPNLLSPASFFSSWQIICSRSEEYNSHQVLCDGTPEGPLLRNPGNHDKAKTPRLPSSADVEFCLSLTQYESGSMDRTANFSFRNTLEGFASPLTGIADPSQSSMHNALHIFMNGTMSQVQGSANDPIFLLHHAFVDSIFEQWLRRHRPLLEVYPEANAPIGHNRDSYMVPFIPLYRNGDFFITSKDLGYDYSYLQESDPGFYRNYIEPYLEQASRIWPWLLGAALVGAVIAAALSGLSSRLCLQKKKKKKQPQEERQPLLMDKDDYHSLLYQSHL
Description: (§1) At different time points, cells were harvested using trysin-EDTA and the cell pellets were washed once with phosphate-buffered saline (PBS). A sample amount from each compound treatment group was divided into two equal parts. These cell pellets were then stored at −80° C. prior to the measurement of the tyrosinase activity and melanin content.
Harvested cell pellets were homogenized in RIPA buffer (10 mM Tris-HCl [pH 7.5], 1% NP-40, 0.1% sodium deoxycholate, 0.1% SDS, 150 mM sodium chloride, and 1 mM EDTA) with protease inhibitors and placed on ice for 30 min. The supernatants were collected after centrifuging the samples at 15,000 g at 4° C. for 30 min. For every 100 μl of supernatant, 200 μl of 0.3% L-DOPA (Sigma-Aldrich) was added. All samples, including a blank control of RIPA buffer and 0.3% L-DOPA, were incubated at 37° C. for 20 min. The dopachrome formation from each sample was then measured at 475 nm. The absorbance percentage values of the treated groups in comparison to untreated controls were calculated against per μg of the total protein content, which was determined using the DC protein assay (Bio-Rad, Hercules, Calif., USA).

tyrosinase [2] = experiment: Western blot of tyrosinase protein expression in B16 melanoma cells; assay type: cell-based, mouse; conditions: for tyrosinase protein expression: 20 μM treatment; for tyrosinase protein suppression, dose response and relative potency: increasing dosage; for time response of tyrosinase suppression: single dose, 24 hrs versus 48 hrs
Description: Carcinogenesis, 2006, 27, 2180-9. Briefly, cell lysates were prepared by suspending cell pellets in lysis buffer (50 mmol/l Tris-HCl [pH 8.0], 150 mmol/l NaCl, 1% NP40, 0.5% deoxycholate, 0.1% SDS, […], 1 μg/ml leupeptin, and 1 mmol/l phenylmethylsulfonyl fluoride). The protein concentration was measured using the DC Protein Assay kit (Bio-Rad, Hercules, Calif., USA). An equal amount of protein (30 μg) was loaded onto a 10% SDS polyacrylamide gel for electrophoresis, then transferred onto a polyvinylidene difluoride membrane (Amersham, Piscataway, N.J., USA). The membrane was then incubated with primary antibodies for 1 hr at room temperature against tyrosinase, Id1, and beta-actin (Santa Cruz Biotechnology, Inc., Santa Cruz, Calif., USA). After incubation with appropriate secondary antibodies, signals were visualized by an ECL Western blotting system (Amersham). The expression of β-actin was assessed as an internal loading control for total cell lysate.

B16 melanoma cells = experiment: Melanin content of treated B16 melanoma cells; assay type: cell-based, mouse; conditions: for melanin content lower than controls / melanin content: 20 μM; for melanin content: days 5 and 9
Description: as §1
Harvested cell pellets were dissolved in 1 ml of 1N sodium hydroxide before incubation at 80° C. The melanin content was then immediately measured at 420 nm. The absorbance percentage values of the treated groups in comparison to untreated controls were calculated against per μg of the determined total protein content.

CC(C)=CCC/C(C)=C/CC/C(C)=C/CCC1(C)CCc2cc(O)c(C)c(C)c2O1 (centres unmarked) [γ-tocotrienol, 7,8-dimethyltocotrienol]
tyrosinase activity (tyrosinase [1]; listed as gamma T3): significantly suppressed the activity of tyrosinase on day 9
tyrosinase activity (tyrosinase [1]; listed as γT3): comparable to that treated with 0.05% kojic acid
tyrosinase activity compared to controls (tyrosinase [1]; day 15): < 15%
tyrosinase protein expression (tyrosinase [2]; listed as γ-T3): remarkable suppression of tyrosinase protein expression
tyrosinase protein expression (tyrosinase [2]; listed as γT3): suppresses tyrosinase protein expression
tyrosinase protein suppression, dose response and relative potency (tyrosinase [2]; listed as γ-T3): significant suppression of tyrosinase in a dose-dependent manner
tyrosinase protein suppression, dose response and relative potency (tyrosinase [2]; listed as γT3): stronger
time response of tyrosinase suppression (tyrosinase [2]; listed as γ-T3): enhanced by increasing the treatment period from 24 to 48 hrs
time response of tyrosinase suppression (tyrosinase [2]; listed as γT3): enhanced after a 48 hr incubation period
melanin content lower than controls (B16 melanoma cells; day 5): 45%
melanin content lower than controls (B16 melanoma cells; day 9): 30%
melanin content (B16 melanoma cells; listed as gamma T3): significantly suppressed the melanin content up to day 9
melanin content (B16 melanoma cells; listed as γT3): marginally lower than the treatment samples using 0.05% sodium lactate and kojic acid
constitutive melanin synthesis (B16 melanoma cells; B16 melanoma cells): suppress constitutive melanin synthesis
